# Reference: US20090233964A1, “METHODS FOR IMPROVING THE PHARMACOKINETICS OF HIV INTEGRASE INHIBITORS” (priority 2005, published 2009)
# Read-outs that look alike come from different tables or passages of the source.
# Key:
# [1] = Example 4: safety of FTC/TDF and Compound 1/r; type: in vivo, human; settings: Compound 1/r and their co-administration
# [2] = Example 7: effect of food on pharmacokinetics of Compound 1 in Japanese male healthy volunteers; type: in vivo, human; settings: 400 mg
# Description: Subjects in the 400 mg fasted cohort received an additional 400 mg dose with breakfast after a washout period (generally a minimum of ten days after the initial administration). The interval of ten days between the two doses was considered appropriate for eliminating any within subject carryover effects. […] Doses were administered at similar times for each subject in each treatment period. […] Plasma samples were isolated from healthy subjects administered with Compound 1. The plasma samples were extracted by solid phase extraction using Empore™ Disk Plate (C8SD), and then measured by high-performance liquid chromatography/tandem mass spectrometry (LC/MS/MS) (HPLC model 2795 separations module from Waters; mass spectrometer model API4000 from MDS SCIEX). Ionization and detection were performed with electrospray ionization and positive ion detection with multiple reaction monitoring, respectively. […] To 50 μL of plasma samples spiked with […] each of 90% acetonitrile and 20 mmol/L ammonium formate-formic acid buffer (pH 3.0)/acetonitrile (10:90, v/v), 10 μL each of internal standard solution was added. To these samples, 200 μL of 0.1% formic acid in 10% acetonitrile was added. These solutions were then mixed for 10 seconds and centrifuged at 10,000 rpm for 5 minutes at 4° C. […] Then, 10 μL of each solution was injected into the LC/MS/MS system and analyzed.
# HIV-1 = test: Example 2: antiviral activity (HIV-1 RNA reduction) and exposure-response in subjects infected with HIV-1; type: in vivo, human
# Description: At screening, subjects were to have a plasma HIV-1 RNA load of ≧10,000 to ≦300,000 copies/mL and a CD4+ cell count of ≧200 cells/mm^3.
# Safety, tolerability, pharmacokinetics, and efficacy were monitored through Day 21 after dosing. […] The placebo group in Cohort 5 also received 100 mg of RTV.
# The duration of the study was 21 days, with 10 days of treatment and 11 days of follow-up. […] Matching placebo was administered orally under fed conditions. For Cohort 5 only, 100 mg RTV capsules were coadministered orally under fed conditions.
# Efficacy: The primary efficacy endpoint was the maximum HIV-1 RNA reduction (log10 copies/mL) from baseline through Day 11. The maximum reduction for an individual subject was the maximum drop among changes from baseline between Days 2 and 11.
# The 2 subjects who received placebo+100 mg RTV were treated as a separate group. HIV-1 RNA values below the detection limit (50 copies/mL) were entered as 49 copies/mL.
# [3] = human, in vivo
# Description: Safety, tolerability, pharmacokinetics, and efficacy were monitored through Day 21 after dosing. The active treatments in the 5 cohorts were as follows: […] The duration of the study was 21 days, with 10 days of treatment and 11 days of follow-up. […] Matching placebo was administered orally under fed conditions. For Cohort 5 only, 100 mg RTV capsules were coadministered orally under fed conditions. […] Pharmacokinetics: The pharmacokinetic parameters of Compound 1 in plasma and peripheral blood mononuclear cells were summarized using descriptive statistics.
# [4] = Example 7: safety of single 400 mg dose of Compound 1; type: in vivo, human; settings: single oral dose, Japanese male healthy volunteers
# Description: The subjects were admitted to the medical institution in the afternoon on the day before administration (“Day −1”). […] The subjects were discharged the day after administration (“Day 2”). Thus, the subjects were hospitalized for a total of three days. Follow up assessment for safety was performed 6 to 8 days after administration (“Days 7 to 9”).
# [5] = Example 1: plasma pharmacokinetics of Compound 1 alone and coadministered with RTV in healthy subjects; type: in vivo, human; settings: 100 mg
# From the text: The study was an open-label, fixed-sequence, crossover, pharmacokinetic study with 12 subjects. The subjects were healthy males and non-pregnant, nonlactating females between 18 and 45 years of age, inclusive. The duration of the study was 20 days, with Period 1 of Days 1 to 10 and Period 2 of days 11 to 20. Follow-up contact was on day 27.
# [6] = Example 5: pharmacokinetic drug-drug interaction of zidovudine and Compound 1/r; type: in vivo, human; settings: for AUCtau, Cmax, Ctau (Compound 1 only) 90% CI of GMR (co-administration:alone): Compound 1/r 200/100 mg QD plus ZDV 300 mg BID, with a meal, bounds 70% to 143%
# From the text: Zidovudine is a NRTI used in HIV patients.
# [7] = Example 3: Compound 1 pharmacokinetics at a range of RTV doses; type: in vivo, human; settings: Compound 1 125 mg QD + 200 mg RTV; mean
# Description: (§1) The effects of a range of RTV doses (20, 50, 100, and 200 mg once daily) on hepatic cytochrome P450 3A (CYP3A) activity were also evaluated using a CYP3A substrate.
# (§2) A randomized, open label, single-center, multiple-dose, two group, Phase 1 study was conducted (24 subjects (16 evaluable) subjects in two groups; 12 (8 evaluable) in each group) with an approximately even distribution of healthy male and non-pregnant, non-lactating female subjects aged between 18-45, inclusive
# (§3) The population mean slope was estimated along with a corresponding 90% CI. This study was performed in compliance with the guidelines of Good Clinical Practices (GCPs).
# [8] = Example 1: multiple-dose safety of Compound 1 alone and with RTV; type: in vivo, human
# Description: The single-dose and multiple-dose pharmacokinetics of Compound 1 were also determined. The multiple-dose safety of Compound 1 administered alone and with RTV was also determined. Safety: Safety was evaluated by assessment of clinical laboratory tests at baseline and at various time points during the study; periodic physical examinations, including vital signs; and documentation of adverse events throughout the study. Safety: No statistical inference was performed for safety data in this pharmacokinetic study.
# [9] = in vivo
# Description: Pharmacokinetic (PK) blood draws were performed on days 7, 17, and 27.
# [10] = human, in vivo; remark: listed apart in the source
# Description: Safety, tolerability, pharmacokinetics, and efficacy were monitored through Day 21 after dosing. The active treatments in the 5 cohorts were as follows: […] Safety: Adverse events, vital signs, electrocardiogram, ophthalmologic examination, and clinical laboratory tests were evaluated for safety. Safety: The proportion of subjects with adverse events was summarized by treatment, system organ class and preferred term for treatment-emergent adverse events, treatment-related adverse events, serious adverse events, and adverse events leading to study drug discontinuation. Adverse events were coded using the Medical Dictionary for Regulatory Activities (MedDRA®) version 8.1. […] Laboratory results were expressed on the original measurement scale and in terms of the toxicity grade. Changes from baseline in quantitative laboratory tests were summarized by visit.
# [11] = test system: hepatic cytochrome P450 3A (CYP3A) activity; test: Example 3: IV midazolam (MDZ) pharmacokinetics as probe for CYP3A activity at a range of RTV doses; settings: for AUCinf: MDZ 1 mg IV, mean
# Description: as §1, §2
# For MDZ: AUC0-last, AUCinf, % AUCexp, Clast, Tlast, λz, T1/2, CL and Vz.
# as §3
# [12] = Example 3: RTV pharmacokinetics when dosed with Compound 1; type: in vivo, human; settings: RTV 100 mg QD with Compound 1; mean (CV %)
# Description: as §1, §2, §3
# [13] = after administration of Compound 1+RTV
compound,measurement,setting,value
"COc1cc2c(cc1Cc1cccc(Cl)c1F)c(=O)c(C(=O)O)cn2[C@H](CO)C(C)C [Compound 1, 6-(3-chloro-2-fluorobenzyl)-1-[(2S)-1-hydroxy-3-methylbutan-2-yl]-7-methoxy-4-oxo-1,4-dihydroquinoline-3-carboxylic acid]",serious adverse events or discontinuations due to AEs,[1],no serious adverse events
same,AUC0-inf higher in the fed state compared to the fasted state,[2],2.69 fold
same,Cmax higher in the fed state compared to the fasted state,[2],3.30 fold
same,"Emax (reduction from baseline, simple Emax model)",HIV-1; Compound 1 Ctau versus HIV-1 RNA reduction,2.32 log10 copies/mL
same,HIV-1 RNA levels compared with placebo,"HIV-1; all dose levels, 10 consecutive days",significantly reduced HIV-1 RNA levels
same,enhancement of exposure,[3],10 to 16 fold
same,electrocardiogram (ECG) changes,[4],No clinically significant electrocardiogram (ECG) changes were noted
same,safety and tolerability,[4],safe and well tolerated with no serious adverse events
same,"mean steady-state systemic exposure (AUCtau, Day 10) lower compared with mean exposure (AUCinf) after a single dose (Day 1)","[5]; Compound 1 alone, indicating autoinduction",approximately 20%
same,AUC,"[5]; both sexes, human, plasma, po",908 ng·h/mL
same,Half-life,"[6]; human, in vivo",supporting once daily dosing
same,AUCtau,[7],20600 ng·h/mL
same,serious adverse events,"[8]; Compound 1 alone and Compound 1+RTV, whole study",No serious adverse events occurred
same,subjects with treatment-emergent AEs considered related to study drugs,[8]; [13],5 of 12 subjects
same,treatment-related AEs reported in more than one subject,[8]; [13],"nausea (three subjects), vomiting (two subjects), headache (two subjects), and pruritus (two subjects)"
same,subjects with treatment-emergent AEs considered related to study drugs,[8]; after administration of Compound 1 alone,2 of 12 subjects
same,tolerability,[8]; concurrent oral Compound 1 100 mg twice daily and RTV 100 mg twice daily for up to 10 days,generally well-tolerated
same,subjects experiencing nausea (most frequent treatment-emergent AE),[8]; during administration of Compound 1+RTV,4 subjects
same,subjects with treatment-emergent adverse events,"[8]; during administration of Compound 1+RTV, each 100 mg twice daily",7 of 12 subjects
same,subjects with treatment-emergent adverse events,"[8]; during administration of Compound 1 alone, 100 mg twice daily",4 of 12 subjects
same,tolerability,[8]; oral Compound 1 100 mg twice daily for up to 20 days,well tolerated
same,"PK (Cmax, AUCtau, Ctau) during co-administration versus alone",[9],unaffected
same,"changes in hematology and urinalysis findings, vital signs, body weight, electrocardiogram and ophthalmic examinations",[10],No clinically relevant changes
same,"dose interruptions, discontinuations, or serious adverse events",[10],"no dose interruptions, discontinuations, or serious adverse events"
same,tolerability,[10],generally well tolerated
Cc1cn([C@H]2C[C@H](N=[N+]=[N-])[C@@H](CO[C@@H]3O[C@H](C(=O)O)[C@@H](O)[C@H](O)[C@H]3O)O2)c(=O)[nH]c1=O [G-ZDV],"AUCtau, Cmax, Ctau (Compound 1 only) 90% CI of GMR (co-administration:alone)",[6],within predefined PK equivalence bounds
"Cc1ncc2n1-c1ccc(Cl)cc1C(c1ccccc1F)=NC2 [MDZ, midazolam]",AUCinf,[11]; +20 mg RTV QD with Compound 1 125 mg,101 ng·h/mL
same,AUCinf,[11]; +50 mg RTV QD with Compound 1 125 mg,145 ng·h/mL
same,AUCinf,[11]; +100 mg RTV QD with Compound 1 125 mg,219 ng·h/mL
same,AUCinf,[11]; +200 mg RTV QD with Compound 1 125 mg,146 ng·h/mL
same,AUCinf,[11]; MDZ alone (Day 1),31.0 ng·h/mL
same,CL,[11]; MDZ +20 mg RTV,2.38 mL/min/kg
same,Clast,[11]; MDZ +20 mg RTV,1.53 ng/mL
same,Half-life,[11]; MDZ +20 mg RTV,7.83 h
same,CL,[11]; MDZ +50 mg RTV,1.5 mL/min/kg
same,Clast,[11]; MDZ +50 mg RTV,2.51 ng/mL
same,Half-life,[11]; MDZ +50 mg RTV,14.4 h
same,CL,[11]; MDZ +100 mg RTV,1.2 mL/min/kg
same,Clast,[11]; MDZ +100 mg RTV,3.34 ng/mL
same,Half-life,[11]; MDZ +100 mg RTV,22.4 h
same,CL,[11]; MDZ +200 mg RTV,1.45 mL/min/kg
same,Clast,[11]; MDZ +200 mg RTV,2.58 ng/mL
same,Half-life,[11]; MDZ +200 mg RTV,15.2 h
same,CL,[11]; MDZ alone,7.45 mL/min/kg
same,Clast,[11]; MDZ alone,0.20 ng/mL
same,Half-life,[11]; MDZ alone,3.97 h
"CC(C)c1nc(CN(C)C(=O)N[C@H](C(=O)N[C@@H](Cc2ccccc2)C[C@H](O)[C@H](Cc2ccccc2)NC(=O)OCc2cncs2)C(C)C)cs1 [Ritonavir, (2S,3S,5S)-5-(N—(N—((N-Methyl-N-((2-isopropyl-4-thiazolyl)methyl)amino)-carbonyl)-L-valinyl)amino)-2-(N-((5-thiazolyl)methoxycarbonyl)amino)-1,6-diphenyl-3-hydroxyhexane]",Half-life,[12],6.34 (18.4) hr
"Cc1cn([C@H]2C[C@H](N=[N+]=[N-])[C@@H](CO)O2)c(=O)[nH]c1=O [ZDV, zidovudine, reference compound]","AUCtau, Cmax, Ctau (Compound 1 only) 90% CI of GMR (co-administration:alone)",[6],within predefined PK equivalence bounds
